Entries after “also recorded” stand apart in the source; their conditions may differ.
T1: TsaN^749−1008 (TcdA domain of TsaN) (Pandoravirus salinus, UniProt A0A291ATS8)
T1 sequence (A0A291ATS8 749-1008): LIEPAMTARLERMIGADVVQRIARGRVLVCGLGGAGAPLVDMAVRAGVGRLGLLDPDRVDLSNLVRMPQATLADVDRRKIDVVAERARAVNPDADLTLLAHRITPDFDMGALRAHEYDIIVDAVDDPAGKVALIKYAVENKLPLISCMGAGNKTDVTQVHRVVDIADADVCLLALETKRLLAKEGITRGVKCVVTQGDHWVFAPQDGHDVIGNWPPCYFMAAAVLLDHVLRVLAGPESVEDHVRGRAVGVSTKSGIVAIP

T2: TsaN (Pandoravirus salinus, UniProt A0A291ATS8)
T2 sequence (A0A291ATS8 1-1008): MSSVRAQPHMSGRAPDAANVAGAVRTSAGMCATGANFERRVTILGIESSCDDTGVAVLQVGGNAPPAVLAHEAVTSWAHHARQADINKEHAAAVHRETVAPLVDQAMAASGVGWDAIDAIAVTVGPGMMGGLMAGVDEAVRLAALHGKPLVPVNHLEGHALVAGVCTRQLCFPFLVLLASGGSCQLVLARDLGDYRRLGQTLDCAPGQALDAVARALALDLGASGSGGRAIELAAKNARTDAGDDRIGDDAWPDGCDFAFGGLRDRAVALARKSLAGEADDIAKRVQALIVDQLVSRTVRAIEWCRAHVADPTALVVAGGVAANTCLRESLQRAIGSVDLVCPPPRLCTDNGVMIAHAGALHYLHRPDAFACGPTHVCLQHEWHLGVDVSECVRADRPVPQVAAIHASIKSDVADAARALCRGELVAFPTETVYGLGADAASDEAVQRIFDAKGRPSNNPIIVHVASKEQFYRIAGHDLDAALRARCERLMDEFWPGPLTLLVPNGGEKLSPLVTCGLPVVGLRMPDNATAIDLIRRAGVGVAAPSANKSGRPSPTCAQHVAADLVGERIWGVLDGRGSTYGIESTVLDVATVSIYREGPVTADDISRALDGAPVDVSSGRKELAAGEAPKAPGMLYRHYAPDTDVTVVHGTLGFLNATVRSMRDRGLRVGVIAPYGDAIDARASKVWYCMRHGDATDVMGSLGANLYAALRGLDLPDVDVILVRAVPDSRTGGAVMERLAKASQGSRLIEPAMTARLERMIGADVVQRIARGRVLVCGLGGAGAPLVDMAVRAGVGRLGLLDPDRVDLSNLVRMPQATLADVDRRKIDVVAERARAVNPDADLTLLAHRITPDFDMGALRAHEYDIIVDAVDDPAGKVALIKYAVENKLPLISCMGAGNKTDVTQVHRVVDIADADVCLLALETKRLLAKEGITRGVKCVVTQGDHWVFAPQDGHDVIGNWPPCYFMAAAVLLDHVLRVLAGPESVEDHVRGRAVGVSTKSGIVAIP

T3: TsaN^1−392 (TsaD domain of TsaN) (Pandoravirus salinus, UniProt A0A291ATS8)
T3 sequence (A0A291ATS8 1-392): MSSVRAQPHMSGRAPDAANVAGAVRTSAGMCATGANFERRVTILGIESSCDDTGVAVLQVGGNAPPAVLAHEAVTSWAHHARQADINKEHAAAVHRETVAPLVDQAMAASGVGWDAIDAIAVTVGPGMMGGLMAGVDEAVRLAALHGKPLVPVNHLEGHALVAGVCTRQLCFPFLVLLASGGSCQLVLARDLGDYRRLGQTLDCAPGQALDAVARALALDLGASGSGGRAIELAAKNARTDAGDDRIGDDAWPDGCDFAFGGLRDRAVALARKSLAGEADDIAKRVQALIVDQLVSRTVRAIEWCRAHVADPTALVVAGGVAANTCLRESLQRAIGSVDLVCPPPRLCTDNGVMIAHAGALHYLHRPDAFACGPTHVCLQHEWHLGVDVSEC

B1: TsaN (Pandoravirus salinus) (protein)
chain: T2 sequence (A0A291ATS8 1-1008)
B2: TsaN^1−392 (Pandoravirus salinus) (protein)
chain: T3 sequence (A0A291ATS8 1-392)

Experiments:
[1] = target: TsaN^749-1008 (TcdA domain of P. salinus TsaN) (Pandoravirus salinus); assay: SEC-MALS
[2] = target: T1, TsaN^749−1008 (TcdA domain of TsaN); assay: ITC, ligand binding to the TcdA domain; set-up: species or system P. salinus
TsaN^749−1008 = assay: Enzymatic assay of ct^6A, LC–MS; assay type: biochemical, P. salinus; conditions: for ct^6A formation from synthetic t^6A in the presence of the nucleotide (ct^6A/t^6A): TsaN^749−1008 and synthetic t^6A plus ATP, AMPCPP, AMP or AMP + PPi
[3] = target: Pandoravirus salinus TsaN (TsaD-TsaC-SUA5-TcdA modular protein), full length (Pandoravirus salinus); assay: SEC
[4] = target: Pandoravirus salinus TsaN (TsaD-TsaC-SUA5-TcdA modular protein), full length (Pandoravirus salinus); assay: SEC-MALS
TsaN = target: T2, TsaN; assay: Effect of divalent metal ions on biosynthesis of t^6ADP and t^6ATP; assay type: biochemical, P. salinus; conditions: pre-bound metals removed by dialysis with EDTA
[5] = target: T3, TsaN^1−392 (TsaD domain of TsaN); assay: ITC, nucleotide binding to the TsaD domain; set-up: species or system P. salinus; conditions: for ΔG / ΔH: 30 μM TsaN^1−392 titrated with 360 μM ligand
TsaN^H155A/H159A = assay: NADH-coupled ATPase assay; assay type: biochemical, P. salinus; conditions: 5 μM TsaN^H155A/H159A
TsaN^(1−392)H155A/H159A = assay: ITC, ATP binding to the TsaD domain variant; set-up: species or system P. salinus; conditions: 30 μM TsaN^(1−392)H155A/H159A titrated with 360 μM ligand
[6] = substrate: Nc1ncnc2c1ncn2[C@@H]1O[C@H](COP(=O)(O)OP(=O)(O)OP(=O)(O)O)[C@@H](O)[C@H]1O; assay: NADH-coupled ATPase assay; assay type: biochemical, P. salinus; conditions: 25°C, pH 7.5
[7] = 30 μM TsaN^749−1008, 360 μM ligand, in the presence of 100 μM synthetic t^6A
[8] = 30 μM TsaN^749−1008 titrated with 360 μM ligand
[9] = other: 5 μM TsaN^1−392, varying ATP

Molecule	K D [2, 8]	N (sites) [2, 8]	ΔG [2, 8]	ΔH [2, 8]	ΔG [5]	ΔH [5]	further results
TsaN^749-1008 (TcdA domain of P. salinus TsaN) (domain or fragment)							stoichiometry N [1]: 2
Nc1ncnc2c1ncn2[C@@H]1O[C@H](COP(=O)(O)CP(=O)(O)OP(=O)(O)O)[C@@H](O)[C@H]1O [AMPCPP]							K D [2, 7]: not observed a binding signal; also recorded: No binding; N (sites) [2, 7]: No binding; ΔG [2, 7]: No binding; ΔH [2, 7]: No binding; ct^6A formation from synthetic t^6A in the presence of the nucleotide (ct^6A/t^6A) (TsaN^749−1008): not observed the formation of ct^6A
Pandoravirus salinus TsaN (TsaD-TsaC-SUA5-TcdA modular protein), full length (enzyme)							stoichiometry N [3]: 2; stoichiometry N [4]: 2
[Cl][Mn][Cl] [MnCl2]							effect of divalent metal ion on catalytic activity of TsaN (t^6A/A) (TsaN): stimulated the catalytic activity
Nc1ncnc2c1ncn2[C@@H]1O[C@H](CO)[C@@H](O)[C@H]1O [A, adenosine]	not able to determine the binding; also recorded: No binding	No binding	No binding	No binding	No binding	No binding	
Nc1ncnc2c1ncn2[C@@H]1O[C@H](CO[P@](=O)(O)O[P@](=O)(O)O[P@@](=O)(O)S)[C@@H](O)[C@H]1O [ATPγS]					-6.77 kcal/mol	-6.02 ± 2.38 kcal/mol	Kd [5]: 10.9 ± 8.91 µM
Nc1ncnc2c1ncn2[C@@H]1O[C@H](COP(=O)(O)OP(=O)(O)O)[C@@H](O)[C@H]1O [ADP]	not able to determine the binding; also recorded: No binding	No binding	No binding	No binding	-7.05 kcal/mol	-2.74 ± 0.62 kcal/mol	ITC binding to AMP-bound TsaN^1-392 ([5]; 30 μM AMP-bound TsaN^1-392 titrated with 360 μM ADP, data not shown): no binding curves
Nc1ncnc2c1ncn2[C@@H]1O[C@H](COP(=O)(O)OP(=O)(O)OP(=O)(O)O)[C@@H](O)[C@H]1O [ATP]	not able to determine the binding; also recorded: No binding	No binding	No binding	No binding			production of ADP in the ATPase assay (TsaN^H155A/H159A): not detected; ct^6A formation from synthetic t^6A in the presence of the nucleotide (ct^6A/t^6A) (TsaN^749−1008): efficient conversion of t^6A to ct^6A; ATP hydrolysis (TsaN^749−1008; in the absence of synthetic t^6A, data not shown): not hydrolyzed; K D (TsaN^(1−392)H155A/H159A): does not bind; also recorded: No binding
Nc1ncnc2c1ncn2[C@@H]1O[C@H](COP(=O)(O)O)[C@@H](O)[C@H]1O [AMP]	not able to determine the binding; also recorded: No binding	No binding	No binding	No binding	-6.49 kcal/mol	-4.74 ± 1.46 kcal/mol	ct^6A formation from synthetic t^6A in the presence of the nucleotide (ct^6A/t^6A) (TsaN^749−1008): not observed the formation of ct^6A
B1							Km ([6]; other: 5 μM TsaN, varying ATP): 40 µM; Vmax ([6]; other: 5 μM TsaN, varying ATP): 0.015 µM/s
B2							Km [6, 9]: 40 µM; Vmax [6, 9]: 0.015 µM/s

From PMC10484737 (Nucleic Acids Research, 2023)
